Biological target: T1, USP7, full-length, native C-Terminus (Homo sapiens, UniProt Q93009)
T1 construct: USP7, full-length, native C-Terminus, 0.2 nM
Assay: Biochemical USP7 assay with Ubiquitin-Rho110 substrate, compounds pre-incubated with USP7 (USP7_Ub-Rho preInc)
Conditions: compounds pre-mixed with USP7, 1 hour incubation, before substrate; read-out: USP7 Ub-Rho preInc (IC50)
Procedure: Biochemical USP7 assays using Ubiquitin-Rho110 as a substrate: The final assay conditions were as follows: The Reaction Buffer consisted of: 50 mM Tris (pH 7.5), 0.01% (v/v) Triton X-100, 2.5 mM Dithiothreitol, 0.1% (w/v) bovine gamma globulin (Sigma cat #G5009-25G); USP7, full-length, native C-Terminus, 0.2 nM; the substrate, Ubiquitin-Rho110 (Boston Biochem cat #U-555), 1 uM. Reactions were carried out for 1 hour at room temperature, in black 20 μL volume polystyrene ProxiPlate 384 F Plus® (PerkinElmer cat #6008260).
Test compounds, including a control USP7 inhibitor (Ub-aldehyde, Boston Biochem cat #U-201) were serially diluted in DMSO, in 384 well clear V-bottom polypropylene plates (Greiner cat #781280). Compounds in DMSO were diluted 10-fold into Reaction Buffer, to achieve 3-fold the final desired concentration. The substrate, Ubiquitin-Rho110 (Boston Biochem cat #U-555), was prepared at 3 μM (3-fold the final concentration) and 5 ul was dispensed into the reaction plate. 5 ul of the compounds (diluted in Reaction Buffer at 3-fold the final concentration) were transferred to the reaction plate. 5 ul of 0.6 nM USP7 (diluted in Reaction Buffer at 3-fold the final concentration) was transferred to the reaction plate to initiate the reaction. After 1 hour incubation at room temperature the reaction was quenched by the addition of 5 ul of 400 mM acetic acid. The enzymatic product was measured by quantifying the fluorescence signal of cleaved Rhodamine-110 using excitation at 485 nm and emission at 535 nm. When pre-incubation of USP7 with compounds was required, the order of addition of reagents was modified to pre-mix the compounds with USP7 (with a 1 hour incubation period), prior to the addition of the substrate and the initiation of the reaction period. Percentage inhibition values were calculated relative to a no enzyme control and a uninhibited enzyme control. Curve fitting and IC50 calculations were carried out using Genedata Screener software.

T1 sequence (Q93009 whole entry): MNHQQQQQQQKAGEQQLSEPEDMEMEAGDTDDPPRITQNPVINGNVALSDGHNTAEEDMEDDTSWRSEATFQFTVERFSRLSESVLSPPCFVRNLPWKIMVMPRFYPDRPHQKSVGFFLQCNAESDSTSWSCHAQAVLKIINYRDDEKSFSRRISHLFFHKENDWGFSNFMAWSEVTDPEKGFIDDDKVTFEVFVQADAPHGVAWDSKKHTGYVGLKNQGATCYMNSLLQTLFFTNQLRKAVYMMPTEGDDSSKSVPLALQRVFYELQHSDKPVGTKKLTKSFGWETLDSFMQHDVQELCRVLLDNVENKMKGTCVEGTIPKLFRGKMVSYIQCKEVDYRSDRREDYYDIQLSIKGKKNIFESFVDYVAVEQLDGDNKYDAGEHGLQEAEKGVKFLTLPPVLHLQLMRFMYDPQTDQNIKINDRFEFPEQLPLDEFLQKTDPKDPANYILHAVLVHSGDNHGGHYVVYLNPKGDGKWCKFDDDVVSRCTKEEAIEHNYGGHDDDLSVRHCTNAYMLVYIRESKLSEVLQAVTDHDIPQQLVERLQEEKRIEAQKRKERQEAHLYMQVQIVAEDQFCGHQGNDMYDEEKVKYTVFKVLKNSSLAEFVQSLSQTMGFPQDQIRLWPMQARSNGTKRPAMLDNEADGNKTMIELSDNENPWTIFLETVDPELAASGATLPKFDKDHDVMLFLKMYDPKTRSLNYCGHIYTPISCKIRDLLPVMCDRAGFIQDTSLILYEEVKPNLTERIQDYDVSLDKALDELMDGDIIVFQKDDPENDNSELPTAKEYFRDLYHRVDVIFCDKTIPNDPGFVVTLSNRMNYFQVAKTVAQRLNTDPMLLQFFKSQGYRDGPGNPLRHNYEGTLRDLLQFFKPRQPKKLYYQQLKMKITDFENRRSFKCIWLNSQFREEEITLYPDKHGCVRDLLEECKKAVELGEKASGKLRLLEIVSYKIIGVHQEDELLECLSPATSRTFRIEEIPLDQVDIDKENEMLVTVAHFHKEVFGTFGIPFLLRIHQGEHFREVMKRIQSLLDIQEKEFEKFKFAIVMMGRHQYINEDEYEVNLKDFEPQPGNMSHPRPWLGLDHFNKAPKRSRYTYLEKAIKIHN

| SMILES | IC50 [µM] |
| --- | --- |
| CCc1c(-c2cccc(C(=O)N(C)C)c2)cnc(N)c1-c1ccc(O)cc1 [Compound 54, 3-[6-amino-4-ethyl-5-(4-hydroxyphenyl)-3-pyridyl]-N,N-dimethyl-benzamide] | 161 |
| CCc1c(-c2ccc(O)cc2)cnc(N)c1-c1ccc(F)c(F)c1 [Compound 18, 4-[6-amino-5-(3,4-difluorophenyl)-4-ethyl-3-pyridyl]phenol] | > 20 |
| CCc1c(-c2ccc(O)cc2)cnc(N)c1-c1ccc(N(C)C(=O)OC(C)(C)C)cc1 [Compound 28, tert-butyl N-[4-[2-amino-4-ethyl-5-(4-hydroxyphenyl)-3-pyridyl]phenyl]-N-methyl-carbamate] | > 20 |
| CCc1c(-c2ccc(O)cc2)cnc(N)c1-c1cccc(COC)c1 [Compound 24, 4-[6-amino-4-ethyl-5-[3-(methoxymethyl)phenyl]-3-pyridyl]phenol] | > 63.3 |
| CCc1c(-c2cccc(OC)c2)cnc(N)c1-c1ccc(O)cc1 [Compound 52, 4-[2-amino-4-ethyl-5-(3-methoxyphenyl)-3-pyridyl]phenol] | 50.1 |
| CCc1c(-c2ccc(O)cc2)cnc(N)c1-c1ccc(NC(=O)OC(C)(C)C)cc1 [Compound 21, tert-butyl N-[4-[2-amino-4-ethyl-5-(4-hydroxyphenyl)-3-pyridyl]phenyl]carbamate] | > 20 |
| CCc1c(-c2cnc(OC)nc2)cnc(N)c1-c1ccc(O)cc1 [Compound 83, 4-[2-amino-4-ethyl-5-(2-methoxypyrimidin-5-yl)-3-pyridyl]phenol] | 136 |
| CCc1c(-c2ccc(O)cc2)cnc(N)c1-c1cccc(NC(=O)OC(C)(C)C)c1 [Compound 31, tert-butyl N-[3-[2-amino-4-ethyl-5-(4-hydroxyphenyl)-3-pyridyl]phenyl]carbamate] | > 20 |
| CCc1c(-c2cccc(C(=O)N3CCCC3)c2)cnc(N)c1-c1ccc(O)cc1 [Compound 64, [3-[6-amino-4-ethyl-5-(4-hydroxyphenyl)-3-pyridyl]phenyl]-pyrrolidin-1-yl-methanone] | > 63.3 |
| CCc1c(-c2ccc(=O)[nH]c2)cnc(N)c1-c1ccc(O)cc1 [Compound 58, 5-[6-amino-4-ethyl-5-(4-hydroxyphenyl)-3-pyridyl]-1H-pyridin-2-one] | 93.3 |
| CCc1c(-c2ccc(OC)cc2)cnc(N)c1-c1ccc(O)cc1 [Compound 53, 4-[2-amino-4-ethyl-5-(4-methoxyphenyl)-3-pyridyl]phenol] | > 20 |

The remaining molecules from weak to strong by IC50, led by results:

| IC50 [µM] | SMILES |
| --- | --- |
| 48.7 | CCc1c(-c2ccc(O)cc2)cnc(N)c1-c1cccc(CC#N)c1 [Compound 27, 2-[3-[2-amino-4-ethyl-5-(4-hydroxyphenyl)-3-pyridyl]phenyl]acetonitrile] |
| 39.2 | CCc1c(-c2ccc(C#N)nc2)cnc(N)c1-c1ccc(O)cc1 [Compound 62, 5-[6-amino-4-ethyl-5-(4-hydroxyphenyl)-3-pyridyl]pyridine-2-carbonitrile] |
| 34.4 | CCc1c(-c2ccc(CNS(C)(=O)=O)cc2)cnc(N)c1-c1ccc(O)cc1 [Compound 70, N-[[4-[6-amino-4-ethyl-5-(4-hydroxyphenyl)-3-pyridyl]phenyl]methyl]methanesulfonamide] |
| 19.9 | CCc1c(-c2ccc(F)cc2)cnc(N)c1-c1ccc(O)cc1 [Compound 34, 4-[2-amino-4-ethyl-5-(4-fluorophenyl)-3-pyridyl]phenol] |
| 18.1 | CCc1c(-c2ccc(C)cc2)cnc(N)c1-c1ccc(O)cc1 [Compound 36, 4-[2-amino-4-ethyl-5-(p-tolyl)-3-pyridyl]phenol] |
| 11.6 | CCc1c(-c2ccc(F)c(F)c2)cnc(N)c1-c1ccc(O)cc1 [Compound 48, 4-[2-amino-5-(3,4-difluorophenyl)-4-ethyl-3-pyridyl]phenol] |
| 7.8 | CCc1c(-c2cccc(C(F)F)c2)cnc(N)c1-c1ccc(O)cc1 [Compound 74, 4-[2-amino-5-[3-(difluoromethyl)phenyl]-4-ethyl-3-pyridyl]phenol] |
| 2.1 | CCc1c(-c2ccc(O)cc2)cnc(N)c1-c1ccc2[nH]ncc2c1 [Compound 87, 4-[6-amino-4-ethyl-5-(1H-indazol-5-yl)-3-pyridyl]phenol] |

Reference: US9573899B2, “USP7 inhibitor compounds and methods of use” (Genentech, Inc., priority 2015, dated 2017)
